According to PMC6437697 (Journal of Medicinal Chemistry, 2019):

Experiments:
Experiment in all cases: KINOMEscan
Type in all cases: binding
Conditions in all cases: read-out: % control activity remaining
ACVR2B = target: T1, ACVR2B (Homo sapiens, UniProt Q13705)
T1 construct: purchased Eurofins DiscoverX KINOMEscan

ALK = target: T2, ALK (Homo sapiens, UniProt Q9UM73)
T2 construct: purchased Eurofins DiscoverX KINOMEscan

BMPR2 = target: T3, BMPR2 (Homo sapiens, UniProt Q13873)
T3 construct: purchased Eurofins DiscoverX KINOMEscan
T3 sequence (Q13873 27-1038): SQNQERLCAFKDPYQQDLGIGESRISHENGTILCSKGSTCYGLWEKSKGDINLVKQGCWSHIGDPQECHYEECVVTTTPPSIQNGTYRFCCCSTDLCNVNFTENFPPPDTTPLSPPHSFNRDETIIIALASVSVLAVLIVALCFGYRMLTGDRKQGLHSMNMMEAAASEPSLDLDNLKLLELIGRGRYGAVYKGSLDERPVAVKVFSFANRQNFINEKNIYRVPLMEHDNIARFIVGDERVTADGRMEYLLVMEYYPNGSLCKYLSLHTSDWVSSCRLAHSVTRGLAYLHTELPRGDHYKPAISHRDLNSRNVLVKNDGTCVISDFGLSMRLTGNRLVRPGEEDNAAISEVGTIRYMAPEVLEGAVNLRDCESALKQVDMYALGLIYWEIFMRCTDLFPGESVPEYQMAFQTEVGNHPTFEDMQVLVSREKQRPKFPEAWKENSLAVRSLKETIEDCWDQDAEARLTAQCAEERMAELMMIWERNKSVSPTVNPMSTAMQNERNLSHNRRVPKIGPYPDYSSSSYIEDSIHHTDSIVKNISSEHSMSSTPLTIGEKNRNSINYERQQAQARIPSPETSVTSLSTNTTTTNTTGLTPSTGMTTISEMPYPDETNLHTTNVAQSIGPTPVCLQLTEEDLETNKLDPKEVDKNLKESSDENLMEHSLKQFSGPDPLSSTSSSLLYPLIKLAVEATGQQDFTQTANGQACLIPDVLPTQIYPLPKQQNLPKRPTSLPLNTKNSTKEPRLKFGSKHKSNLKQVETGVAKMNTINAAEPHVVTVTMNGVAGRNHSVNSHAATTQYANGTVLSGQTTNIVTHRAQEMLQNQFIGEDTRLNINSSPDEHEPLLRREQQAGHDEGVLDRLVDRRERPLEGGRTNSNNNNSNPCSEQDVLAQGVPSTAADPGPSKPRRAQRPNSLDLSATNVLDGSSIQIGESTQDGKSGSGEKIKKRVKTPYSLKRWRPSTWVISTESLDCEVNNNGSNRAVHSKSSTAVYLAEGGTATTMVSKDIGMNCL

KIT = target: T4, KIT (Homo sapiens, UniProt P10721)
T4 construct: purchased Eurofins DiscoverX KINOMEscan
T4 sequence (P10721 26-976): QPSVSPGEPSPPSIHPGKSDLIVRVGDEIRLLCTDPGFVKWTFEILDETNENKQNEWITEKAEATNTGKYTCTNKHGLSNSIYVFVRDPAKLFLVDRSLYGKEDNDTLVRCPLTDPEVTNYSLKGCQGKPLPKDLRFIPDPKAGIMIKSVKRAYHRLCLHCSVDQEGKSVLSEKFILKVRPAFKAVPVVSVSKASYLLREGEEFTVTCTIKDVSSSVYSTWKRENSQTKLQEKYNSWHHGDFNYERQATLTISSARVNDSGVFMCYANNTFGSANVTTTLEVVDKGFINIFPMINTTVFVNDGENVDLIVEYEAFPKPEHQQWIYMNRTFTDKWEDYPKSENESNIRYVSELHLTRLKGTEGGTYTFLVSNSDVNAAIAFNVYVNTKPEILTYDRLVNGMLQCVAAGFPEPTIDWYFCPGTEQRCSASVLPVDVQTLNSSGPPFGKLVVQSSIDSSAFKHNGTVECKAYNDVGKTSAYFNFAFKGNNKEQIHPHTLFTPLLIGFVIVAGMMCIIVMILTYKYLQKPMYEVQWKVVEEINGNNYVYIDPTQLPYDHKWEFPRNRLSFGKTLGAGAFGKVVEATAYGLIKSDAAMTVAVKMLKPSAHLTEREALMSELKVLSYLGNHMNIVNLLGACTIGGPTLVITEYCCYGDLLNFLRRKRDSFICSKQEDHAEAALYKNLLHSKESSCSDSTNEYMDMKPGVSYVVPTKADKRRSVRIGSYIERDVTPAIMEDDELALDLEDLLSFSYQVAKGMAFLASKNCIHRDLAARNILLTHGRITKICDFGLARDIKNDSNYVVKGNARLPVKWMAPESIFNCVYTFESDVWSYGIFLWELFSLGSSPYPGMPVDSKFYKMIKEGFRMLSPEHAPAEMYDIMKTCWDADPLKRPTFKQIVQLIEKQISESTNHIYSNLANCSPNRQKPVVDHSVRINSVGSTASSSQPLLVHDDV

LATS1 = target: T5, LATS1 (Homo sapiens, UniProt O95835)
T5 construct: purchased Eurofins DiscoverX KINOMEscan
T5 sequence (O95835 1-1130): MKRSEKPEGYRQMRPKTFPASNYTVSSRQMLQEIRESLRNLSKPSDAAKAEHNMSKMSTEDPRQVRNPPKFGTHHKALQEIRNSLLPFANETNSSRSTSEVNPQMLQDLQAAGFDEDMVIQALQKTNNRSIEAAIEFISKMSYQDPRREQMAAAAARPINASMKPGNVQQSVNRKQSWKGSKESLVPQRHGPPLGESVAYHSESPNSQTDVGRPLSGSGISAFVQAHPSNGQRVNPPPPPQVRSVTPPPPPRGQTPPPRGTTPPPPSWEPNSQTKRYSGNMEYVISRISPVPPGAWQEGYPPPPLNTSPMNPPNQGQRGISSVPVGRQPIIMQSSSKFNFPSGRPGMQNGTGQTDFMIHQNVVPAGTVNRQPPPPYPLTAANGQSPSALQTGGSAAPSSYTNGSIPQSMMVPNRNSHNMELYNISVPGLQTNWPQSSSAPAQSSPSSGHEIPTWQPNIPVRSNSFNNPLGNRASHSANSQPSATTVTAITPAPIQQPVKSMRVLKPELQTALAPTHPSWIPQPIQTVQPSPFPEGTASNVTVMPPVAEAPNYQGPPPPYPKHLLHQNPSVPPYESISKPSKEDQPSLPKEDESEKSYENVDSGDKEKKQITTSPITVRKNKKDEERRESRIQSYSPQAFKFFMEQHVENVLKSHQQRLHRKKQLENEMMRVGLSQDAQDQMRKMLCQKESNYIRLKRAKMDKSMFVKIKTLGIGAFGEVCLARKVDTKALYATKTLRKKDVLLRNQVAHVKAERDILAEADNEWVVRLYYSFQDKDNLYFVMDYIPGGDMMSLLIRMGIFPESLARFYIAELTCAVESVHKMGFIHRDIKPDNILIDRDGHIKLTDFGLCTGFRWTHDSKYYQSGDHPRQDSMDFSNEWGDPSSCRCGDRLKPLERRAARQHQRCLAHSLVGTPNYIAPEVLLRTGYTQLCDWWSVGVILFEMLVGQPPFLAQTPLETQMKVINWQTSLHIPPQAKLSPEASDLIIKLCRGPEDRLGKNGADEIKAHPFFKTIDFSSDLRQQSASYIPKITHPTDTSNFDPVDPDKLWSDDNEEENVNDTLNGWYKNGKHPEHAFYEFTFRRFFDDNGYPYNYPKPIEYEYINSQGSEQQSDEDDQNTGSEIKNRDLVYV

MYO3A = target: T6, MYO3A (Homo sapiens, UniProt Q8NEV4)
T6 construct: purchased Eurofins DiscoverX KINOMEscan
T6 sequence (Q8NEV4 whole entry): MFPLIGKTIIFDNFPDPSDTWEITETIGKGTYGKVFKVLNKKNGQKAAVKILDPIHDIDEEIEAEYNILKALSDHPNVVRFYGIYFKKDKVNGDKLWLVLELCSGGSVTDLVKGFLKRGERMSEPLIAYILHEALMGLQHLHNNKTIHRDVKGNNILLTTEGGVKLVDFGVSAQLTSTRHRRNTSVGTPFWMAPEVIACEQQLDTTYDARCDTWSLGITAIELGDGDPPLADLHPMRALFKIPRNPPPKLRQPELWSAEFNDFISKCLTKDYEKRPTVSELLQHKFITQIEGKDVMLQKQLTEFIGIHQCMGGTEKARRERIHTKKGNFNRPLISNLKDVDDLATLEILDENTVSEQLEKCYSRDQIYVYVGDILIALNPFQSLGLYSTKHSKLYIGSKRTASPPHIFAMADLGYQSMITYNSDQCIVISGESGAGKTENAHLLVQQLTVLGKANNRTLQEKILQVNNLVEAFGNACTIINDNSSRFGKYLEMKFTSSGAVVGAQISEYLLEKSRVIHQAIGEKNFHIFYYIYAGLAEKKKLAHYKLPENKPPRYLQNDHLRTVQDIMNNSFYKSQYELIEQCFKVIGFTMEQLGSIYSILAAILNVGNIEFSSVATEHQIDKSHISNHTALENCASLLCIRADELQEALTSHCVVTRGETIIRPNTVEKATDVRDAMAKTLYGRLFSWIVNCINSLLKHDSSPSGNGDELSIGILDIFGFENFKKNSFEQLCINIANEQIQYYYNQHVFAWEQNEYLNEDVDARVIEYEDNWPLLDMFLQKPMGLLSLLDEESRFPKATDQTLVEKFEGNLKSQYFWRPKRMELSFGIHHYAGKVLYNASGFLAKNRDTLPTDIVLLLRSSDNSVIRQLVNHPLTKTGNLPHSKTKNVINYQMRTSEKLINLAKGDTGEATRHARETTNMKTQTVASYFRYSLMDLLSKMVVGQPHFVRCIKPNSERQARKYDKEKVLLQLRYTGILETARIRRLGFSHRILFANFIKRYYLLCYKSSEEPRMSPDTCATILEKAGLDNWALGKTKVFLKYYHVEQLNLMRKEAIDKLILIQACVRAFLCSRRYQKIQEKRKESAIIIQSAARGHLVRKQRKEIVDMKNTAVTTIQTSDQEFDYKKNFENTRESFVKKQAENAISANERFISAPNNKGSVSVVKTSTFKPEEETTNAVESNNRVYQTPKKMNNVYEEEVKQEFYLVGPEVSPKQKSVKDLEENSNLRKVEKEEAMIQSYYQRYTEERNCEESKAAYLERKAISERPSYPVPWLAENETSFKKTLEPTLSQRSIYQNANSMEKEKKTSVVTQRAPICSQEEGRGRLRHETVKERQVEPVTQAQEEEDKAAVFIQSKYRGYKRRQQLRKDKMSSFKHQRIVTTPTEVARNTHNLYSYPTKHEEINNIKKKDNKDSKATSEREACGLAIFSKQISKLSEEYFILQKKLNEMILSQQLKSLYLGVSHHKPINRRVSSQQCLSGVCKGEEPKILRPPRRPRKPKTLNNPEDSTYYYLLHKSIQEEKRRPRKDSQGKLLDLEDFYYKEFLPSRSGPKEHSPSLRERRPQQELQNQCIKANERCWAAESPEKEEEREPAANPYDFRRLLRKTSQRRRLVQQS

PIM1 = target: T7, PIM1 (Homo sapiens, UniProt P11309)
T7 construct: purchased Eurofins DiscoverX KINOMEscan
T7 sequence (P11309 whole entry): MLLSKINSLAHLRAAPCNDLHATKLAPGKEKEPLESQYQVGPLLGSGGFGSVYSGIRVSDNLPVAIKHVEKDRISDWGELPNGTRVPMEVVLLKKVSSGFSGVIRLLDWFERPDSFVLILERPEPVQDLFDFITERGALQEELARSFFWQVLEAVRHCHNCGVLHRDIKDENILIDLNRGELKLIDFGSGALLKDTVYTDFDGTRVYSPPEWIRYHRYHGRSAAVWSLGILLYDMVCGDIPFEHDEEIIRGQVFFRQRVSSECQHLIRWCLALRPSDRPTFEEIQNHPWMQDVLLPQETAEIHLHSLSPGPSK

RIOK3 = target: T8, RIOK3 (Homo sapiens, UniProt O14730)
T8 construct: purchased Eurofins DiscoverX KINOMEscan
T8 sequence (O14730 1-519): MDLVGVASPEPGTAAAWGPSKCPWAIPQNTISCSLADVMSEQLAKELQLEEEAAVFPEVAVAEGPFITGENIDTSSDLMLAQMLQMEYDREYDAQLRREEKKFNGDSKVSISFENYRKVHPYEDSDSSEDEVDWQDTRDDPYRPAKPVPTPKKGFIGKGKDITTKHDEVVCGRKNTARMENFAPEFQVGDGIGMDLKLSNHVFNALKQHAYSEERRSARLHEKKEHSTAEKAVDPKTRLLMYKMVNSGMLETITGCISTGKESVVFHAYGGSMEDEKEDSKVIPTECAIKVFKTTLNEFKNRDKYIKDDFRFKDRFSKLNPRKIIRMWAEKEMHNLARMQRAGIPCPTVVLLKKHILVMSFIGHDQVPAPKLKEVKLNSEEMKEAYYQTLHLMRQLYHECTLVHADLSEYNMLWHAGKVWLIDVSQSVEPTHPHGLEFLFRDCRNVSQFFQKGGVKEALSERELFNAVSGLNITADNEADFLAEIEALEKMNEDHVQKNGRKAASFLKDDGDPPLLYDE

TLK2 = target: T9, TLK2 (Homo sapiens, UniProt Q86UE8)
T9 construct: purchased Eurofins DiscoverX KINOMEscan

T2 sequence (Q9UM73 19-1620): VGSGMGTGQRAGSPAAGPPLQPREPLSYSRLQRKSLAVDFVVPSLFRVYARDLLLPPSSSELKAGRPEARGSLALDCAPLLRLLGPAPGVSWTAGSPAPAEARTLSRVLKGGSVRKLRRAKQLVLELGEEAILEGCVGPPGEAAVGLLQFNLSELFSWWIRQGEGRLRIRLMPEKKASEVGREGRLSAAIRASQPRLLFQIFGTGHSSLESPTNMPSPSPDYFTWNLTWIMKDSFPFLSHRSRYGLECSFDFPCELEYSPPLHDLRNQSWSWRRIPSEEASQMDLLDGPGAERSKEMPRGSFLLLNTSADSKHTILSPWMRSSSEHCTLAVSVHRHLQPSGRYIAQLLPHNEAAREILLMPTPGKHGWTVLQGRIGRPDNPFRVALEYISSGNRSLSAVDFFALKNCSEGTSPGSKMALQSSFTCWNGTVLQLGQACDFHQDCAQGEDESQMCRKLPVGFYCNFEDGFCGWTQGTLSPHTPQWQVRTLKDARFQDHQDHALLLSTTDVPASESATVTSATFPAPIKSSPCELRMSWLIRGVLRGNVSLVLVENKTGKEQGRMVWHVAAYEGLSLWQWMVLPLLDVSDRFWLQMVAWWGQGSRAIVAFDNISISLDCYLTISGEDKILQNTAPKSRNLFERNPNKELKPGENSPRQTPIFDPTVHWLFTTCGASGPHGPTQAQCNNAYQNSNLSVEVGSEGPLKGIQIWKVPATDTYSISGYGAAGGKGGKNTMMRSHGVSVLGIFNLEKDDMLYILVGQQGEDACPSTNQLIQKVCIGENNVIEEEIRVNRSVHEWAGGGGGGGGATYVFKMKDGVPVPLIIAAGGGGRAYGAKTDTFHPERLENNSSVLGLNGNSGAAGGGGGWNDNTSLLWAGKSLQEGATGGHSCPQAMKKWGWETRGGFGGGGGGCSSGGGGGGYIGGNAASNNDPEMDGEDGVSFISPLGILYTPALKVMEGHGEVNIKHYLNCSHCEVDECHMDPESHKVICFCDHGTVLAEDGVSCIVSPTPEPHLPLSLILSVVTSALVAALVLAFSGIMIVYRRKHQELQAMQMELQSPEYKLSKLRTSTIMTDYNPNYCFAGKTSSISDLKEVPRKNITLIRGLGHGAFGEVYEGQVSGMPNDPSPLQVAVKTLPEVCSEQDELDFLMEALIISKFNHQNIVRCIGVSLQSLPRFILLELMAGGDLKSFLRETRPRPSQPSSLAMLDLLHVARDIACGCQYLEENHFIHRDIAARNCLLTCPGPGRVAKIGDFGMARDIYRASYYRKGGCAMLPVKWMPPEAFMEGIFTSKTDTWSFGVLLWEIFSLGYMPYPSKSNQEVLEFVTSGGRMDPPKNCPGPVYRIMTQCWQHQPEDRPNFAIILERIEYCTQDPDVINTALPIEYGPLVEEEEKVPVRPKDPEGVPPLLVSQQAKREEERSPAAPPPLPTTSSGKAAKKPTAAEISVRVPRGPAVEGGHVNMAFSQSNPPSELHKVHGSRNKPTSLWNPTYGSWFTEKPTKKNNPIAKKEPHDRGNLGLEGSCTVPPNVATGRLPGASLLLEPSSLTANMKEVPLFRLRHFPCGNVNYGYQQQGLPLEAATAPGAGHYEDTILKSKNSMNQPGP
T1 sequence (Q13705 19-512): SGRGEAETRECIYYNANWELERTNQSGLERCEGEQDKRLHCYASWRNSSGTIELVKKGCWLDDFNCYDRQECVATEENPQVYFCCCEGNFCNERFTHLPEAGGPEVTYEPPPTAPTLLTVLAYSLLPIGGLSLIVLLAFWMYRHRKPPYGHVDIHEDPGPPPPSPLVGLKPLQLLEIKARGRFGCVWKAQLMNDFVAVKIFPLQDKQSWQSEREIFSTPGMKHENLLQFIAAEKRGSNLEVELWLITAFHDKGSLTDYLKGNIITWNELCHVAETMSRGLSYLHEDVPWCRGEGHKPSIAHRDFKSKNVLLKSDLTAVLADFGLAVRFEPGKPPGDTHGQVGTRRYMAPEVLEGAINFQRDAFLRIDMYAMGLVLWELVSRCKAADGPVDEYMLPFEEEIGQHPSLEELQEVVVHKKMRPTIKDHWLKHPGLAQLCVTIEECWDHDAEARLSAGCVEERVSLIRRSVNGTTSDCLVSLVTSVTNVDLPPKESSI

## Clc1cc(NCC2CC2)c2ncc(-c3ccc4[nH]ncc4c3)n2n1 [compound 2, 6-Chloro-N-(cyclopropylmethyl)-3-(1H-indazol-5-yl)imidazo[1,2-b]pyridazin-8-amine]
ACVR2B
  remaining binding at 1 µM: 100%
ALK
  remaining binding at 1 µM: 92%
BMPR2
  remaining binding at 1 µM: 96%
KIT
  remaining binding at 1 µM: 1.6%
LATS1
  remaining binding at 1 µM: 82%
MYO3A
  remaining binding at 1 µM: 96%
PIM1
  remaining binding at 1 µM: 100%
RIOK3
  remaining binding at 1 µM: 31%
TLK2
  remaining binding at 1 µM: 98%

## O=C(CN1CCOCC1)N[C@H]1CC[C@H](Nc2cc(Cl)nn3c(-c4ccc5[nH]ncc5c4)cnc23)CC1 [compound 26]
ACVR2B
  remaining binding at 1 µM: 99%
ALK
  remaining binding at 1 µM: 94%
BMPR2
  remaining binding at 1 µM: 100%
KIT
  remaining binding at 1 µM: 0%
LATS1
  remaining binding at 1 µM: 82%
MYO3A
  remaining binding at 1 µM: 96%
PIM1
  remaining binding at 1 µM: 68%
RIOK3
  remaining binding at 1 µM: 32%
TLK2
  remaining binding at 1 µM: 95%

## CN1CCC(CNc2cc(Cl)nn3c(-c4cc5nc(Nc6ccccc6)[nH]c5cc4F)cnc23)CC1 [compound 31, 6-Chloro-3-(6-fluoro-2-(phenylamino)-1H-benzo[d]imidazol-5-yl)-N-((1-methylpiperidin-4-yl)methyl)imidazo[1,2-b]pyridazin-8-amine]
ACVR2B
  remaining binding at 1 µM: 100%
ALK
  remaining binding at 1 µM: 70%
BMPR2
  remaining binding at 1 µM: 91%
KIT
  remaining binding at 1 µM: 68%
LATS1
  remaining binding at 1 µM: 86%
MYO3A
  remaining binding at 1 µM: 97%
PIM1
  remaining binding at 1 µM: 95%
RIOK3
  remaining binding at 1 µM: 94%
TLK2
  remaining binding at 1 µM: 89%
